Values after ≈ are worked out from the molar mass of the structure shown. Like-named read-outs stand apart in the source and are kept apart here. Where a SMILES comes first, the peptide text is derived from it. [ ]: non-standard residue; d: D form.

The record followed here is article PMC8621208, “Antiseptic 9-Meric Peptide with Potency against Carbapenem-Resistant Acinetobacter baumannii Infection” (International Journal of Molecular Sciences, 2021).

The subject of data set [1] is human kidney (HK)-2 cells. The data set is described as follows: Cytotoxicity, WST-8 assay. Type of data set: cell-based. As to conditions: 100 μM, 24 h. As for the experimental part:
(§1) Figure 6 In vitro cytotoxicity of Pro9-3 and their analogues. (A) Dose-response curve represent the hemolytic activity of peptides against sheep red blood cell (sRBC). Concentration-dependent (0–100 μM) toxic effects induced by peptides on (B) RAW 264.7 murine macrophage cells and (C) human kidney (HK)-2 cells for 24 h. Melittin was used as a control. Statistical analysis was performed using two-way analysis of variance (ANOVA) with Dunnett’s comparison test. Values are expressed as mean ± SEM of three independent experiments. * p < 0.05, ** p < 0.01, *** p < 0.001, and ns, non-significant compared with the control.
(§2) RAW 264.7 mouse macrophage cells and Human kidney (HK)-2 cells were obtained from Korean cell line bank (Seoul, Korea) and the cells were maintained in DMEM culture media (Thermo Fischer Scientific Inc., Waltham, MA, USA) supplemented with 10% fetal bovine serum, 1% penicillin/streptomycin at 37 °C in a humidified 5% CO2 incubator. The cytotoxicity of the peptides was analyzed using WST-8 cell proliferation assay (Biomax Co, Ltd., Seoul, Korea), and the experiment was performed according to the kit protocol. Briefly, cells (1 × 10^4) were seeded in 96-well plate and the peptides treatment (0–100 μM) were initiated at 80% confluency and then for 24 h. After incubation, WST-8 reagent was added and the change in absorbance was read at 450 nm against reagent blank, and values are expressed as percent cell survival.
Background: Tetrazolium dyes change colour on reduction, which living cells bring about.

The next data set deals with E. coli. The data set is described as follows: MIC, broth dilution. Type of data set: cell-based, Escherichia coli KCTC 1682. As to conditions: E. coli; 16 h, MH media; read-out: Minimal Inhibitory Concentration (MIC). The text has this: (§3) Escherichia coli KCTC 1682 was obtained from the Korean Collection for Type Cultures (KCTC) (Jeongeup-si, Korea), Acinetobacter baumannii KCCM 40203, Pseudomonas aeruginosa KCCM 11328 from the Korea Culture Center of Microorganisms (KCCM) (Seoul, Korea). Klebsiella pneumoniae NCCP 16054 were obtained from the National Culture Collection for Pathogens (NCCP) (Osong, Korea). Additionally, two carbapenem-resistant E. coli (CREC E1 and E2), 11 carbapenem-resistant A. baumannii (CRAB C0–C10) and two carbapenem-resistant K. pneumoniae (CRKP K1 and K2) were isolated from the patients, who presented symptoms and signs of infection at Korea University Anam Hospital (Seoul, Korea) (IRB registration no. 2020AN0157, 4 March 2021). CRAB C0–C10 have the OXA-23 gene with carbapenem-resistance.
(§4) The minimum inhibitory concentrations (MIC) were determined using broth dilution method. Briefly, all the mentioned bacterial strains were grown overnight at 37 °C by Muller–Hinton (MH) media. […] After 16 h incubation, the bacterial growth was read at 600 nm using a SpectraMAX microplate reader (Molecular Devices, San Jose, CA, USA).
In general terms: Broth dilution looks for growth in wells or tubes with falling amounts of substance.

Data set [2] has as its system RAW 264.7 murine macrophage cells. The data set is described as follows: Cytotoxicity, WST-8 assay. Type of data set: cell-based, mouse. As to conditions: 100 μM, 24 h. As for the experimental part: as §1, §2
Data set [3] has as its system sheep red blood cells (sRBC). Briefly: Hemolytic assay. As to conditions: 100 μM. Type of data set: cell-based. How it is done: The peptide-induced toxicity was determined by hemolytic against Sheep red blood cells (sRBC). Briefly, Fresh sRBC were washed at least three times with phosphate-buffered saline (PBS) and the debris were removed by centrifugation (1000× g for 5 min, 4 °C). All the peptides including melittin control (0.2–100 μM) and positive control (1% (v/v) triton X-100) were incubated with 4% (v/v) sRBC for 1 h at 37 °C followed by centrifugation at 1000× g for 5 min. The supernatant was measured at 405 nm using a microplate reader.

The next data set deals with CRAB C0. Type of data set: cell-based, carbapenem-resistant A. baumannii. As to conditions: peptide pre-incubated 6 h at 37 °C. How it is done:
All the peptides at their MICs were pre-incubated with proteolytic enzymes such as trypsin and α-chymotrypsin (10,000:1; peptide: enzyme ratio) for 6 h at 37 °C. Then, 100 μL of peptide-protease cocktail was added to the 100 µL bacterial suspension (E. coli, A. baumannii and CRAB C0, 2 × 10^5 CFU/mL) and further incubated for 16 h at 37 °C. Bacterial suspension without peptide and protease served as negative control. The analysis was repeated at three times using independent experiments, and the degree of bacterial growth was measured at 600 nm using a microplate reader.

The test system of a further data set is CRKP K2. The data set is described as follows: MIC, broth dilution. Type of data set: cell-based, carbapenem-resistant K. pneumoniae. As to conditions: read-out: Minimal Inhibitory Concentration (MIC).
Excerpt: as §3, §4

In a further data set the test system is CRKP K1. Briefly: MIC, broth dilution. As to conditions: read-out: Minimal Inhibitory Concentration (MIC). Type of data set: cell-based, carbapenem-resistant K. pneumoniae.
Excerpt: as §3, §4

Another data set has as its system A. baumannii. The data set is described as follows: MIC, broth dilution. As to conditions: 16 h, MH media, read-out: Minimal Inhibitory Concentration (MIC). Type of data set: cell-based, Acinetobacter baumannii KCCM 40203.
Excerpt: as §3, §4

The test system of the next data set is CRAB C0 outer membrane. Briefly: Outer membrane permeability, NPN uptake. Type of data set: cell-based, carbapenem-resistant A. baumannii. As for the experimental part: The effect of peptides on the disturbance of CRAB C0 outer membrane was analyzed using 1-N-phenylnaphthylamine (NPN, Sigma-Aldrich, St. Louis, MO, USA) uptake assay, as previously described. Briefly, CRAB C0 cell suspensions were mixed with NPN (1 mM) and the background fluorescence was recorded for subtraction (excitation λ = 350 nm, emission λ = 420 nm) using RF-6000PC fluorescent spectrophotometer (Shimadzu Scientific Instruments, Kyoto, Japan). Changes in the NPN fluorescence were recorded after addition of different concentrations of peptides and values are expressed as—fluorescence intensity (A.U.).

On to `CC[C@@H](C)[C@@H](NC(=O)[C@@H](Cc1c[nH]c2ccccc12)NC(=O)[C@@H](CCCNC(=N)N)NC(=O)[C@H](N)CCCNC(=N)N)C(=O)N[C@H](C)C(=O)N[C@H](CC(C)C)C(=O)N[C@H](Cc1c[nH]c2ccccc12)C(=O)N[C@H](CC(C)C)C(=O)N[C@H](CCCNC(=N)N)C(N)=O` [R-Pro9-3D, rrwialwlr-NH2] (H-[dR][dR][dW][dI][dA][dL][dW][dL][dR]-NH2), for which the “Toxicity in human kidney (HK)-2 cells” value in data set [1] is listed as 9.6%. The MIC was found to be 8 µM (≈ 10.1 µg/mL) in the data set with E. coli, 8 µM (≈ 10.1 µg/mL) in the data set with CRKP K2, 16 µM (≈ 20.3 µg/mL) in the data set on CRKP K1 and 4 µM (≈ 5.07 µg/mL) in the data set on A. baumannii. Moreover, in data set [2], the “Toxicity in RAW 264.7 cells” value stood at 20.3%. The compound also had a Hemolytic activity in data set [3] of 1.2%. Moreover, the “Minimal Inhibitory Concentration (MIC)” value in the data set on CRAB C0 (CRAB C0 + Trypsin) and with CRAB C0 (CRAB C0 + α-Chymotrypsin) was 4 µM in each case. For the same compound, the “NPN uptake (outer membrane permeabilization)” value in the data set on CRAB C0 outer membrane is given as “greater NPN uptake than their L-form peptides”.
